Data set [1] in a line: Selectivity index, ratio of CC50 for human PANC1 cells to MIC for dormant stage of Mycobacterium bovis BCG ATCC 35734. The class given is toxicity, cell-based, PANC-1. The settings on record: read-out: Selectivity Index.
In data set [2] the test system is Mycobacterium tuberculosis. Description: Antimycobacterial activity against active stage of Mycobacterium tuberculosis H37Ra ATCC 25177 measured on day 8 by XTT reduction menadione assay. The class given is functional, organism-based. Conditions: H37Ra ATCC 25177, 192 h. On the technique in general: Tetrazolium dyes change colour on reduction, which living cells bring about.

Data set [3] in a line: Selectivity index, ratio of CC50 for human THP1 cells to MIC for active stage of Mycobacterium bovis BCG ATCC 35734. The class given is toxicity, cell-based, THP-1. Conditions: read-out: Selectivity Index.
Data set [4] in a line: Cytotoxicity against human HeLa cells by MTT assay. It counts as cell-based.
Data set [5] in a line: Cytotoxicity against human THP1 cells by MTT assay. It counts as cell-based, THP-1.
Data set [6] in a line: Selectivity index, ratio of CC50 for human HCT116 cells to MIC for dormant stage of Mycobacterium bovis BCG ATCC 35734. It counts as toxicity, cell-based, HCT-116. The settings on record: read-out: Selectivity Index.
A short description of data set [7]: Cytotoxicity against human HCT116 cells by MTT assay. It counts as cell-based, HCT-116.
Data set [8] can be described thus: Selectivity index, ratio of CC50 for human THP1 cells to MIC for dormant stage of Mycobacterium bovis BCG ATCC 35734. The class given is toxicity, cell-based, THP-1. Conditions: read-out: Selectivity Index.
Data set [9] is described as follows: Selectivity index, ratio of CC50 for human HeLa cells to MIC for active stage of Mycobacterium bovis BCG ATCC 35734. It counts as toxicity, cell-based. Conditions: read-out: Selectivity Index.
Data set [10] is described as follows: Selectivity index, ratio of CC50 for human HeLa cells to MIC for dormant stage of Mycobacterium bovis BCG ATCC 35734. Conditions: read-out: Selectivity Index. The class given is toxicity, cell-based.
Data set [11] has as its system Mycobacterium tuberculosis. In words: Antimycobacterial activity against dormant stage of Mycobacterium tuberculosis H37Ra ATCC 25177 measured on day 12 by XTT reduction menadione assay. Conditions: H37Ra ATCC 25177, 288 h. The class given is functional, organism-based.
A short description of data set [12]: Selectivity index, ratio of CC50 for human PANC1 cells to MIC for active stage of Mycobacterium bovis BCG ATCC 35734. It counts as toxicity, cell-based, PANC-1. Conditions: read-out: Selectivity Index.
Data set [13] is described as follows: Cytotoxicity against human PANC1 cells by MTT assay. It counts as cell-based, PANC-1.
Data set [14] can be described thus: Selectivity index, ratio of CC50 for human HCT116 cells to MIC for active stage of Mycobacterium bovis BCG ATCC 35734. The class given is toxicity, cell-based, HCT-116. Conditions: read-out: Selectivity Index.

The text below walks through data of ChEMBL document CHEMBL3822409, “Synthesis and antitubercular activity of new 1,3,4-oxadiazoles bearing pyridyl and thiazolyl scaffolds” (Bioorg Med Chem Lett, 2016).

Molecules are shown by their SMILES. A value given as a limit tells only on which side of the number the result lay.

Consider `Cc1ccccc1-c1nnc(-c2sc(-c3cccnc3)nc2C)o1`, for which the selectivity ratio in data set [1] amounted to 20; in data set [3], 17; in [6] it was 20; in [8], 20; in [9], 17; in data set [10] it was 20. In addition, the selectivity ratio in [12] and in [14] was 17 throughout. Moreover, the concentration for half-maximal inhibition (IC50) in data set [2] and in data set [11] was above 30 µg/mL throughout. For the same molecule, the minimal inhibitory concentration (MIC) in [2] and in data set [11] was above 30 µg/mL in each case. For the same molecule, the CC50 in data set [4], in data set [5], in data set [7] and in data set [13] was above 100 µg/mL each time.
For `Cc1nc(-c2cccnc2)sc1-c1nnc(-c2cccc(Cl)c2Cl)o1`, the selectivity ratio in [1], in data set [3], in [6], in [8], in [9] and in data set [10] was 3 in each case. The selectivity ratio in [12] and in [14] was 3 each time. In addition, the IC50 in [2] and in data set [11] was above 30 µg/mL in each case. In addition, the minimum inhibitory concentration (MIC) in data set [2] and in [11] was above 30 µg/mL each time. Besides, the 50% cytotoxic concentration (CC50) in data set [4], in data set [5], in data set [7] and in data set [13] was above 100 µg/mL each time.
In the case of `Cc1nc(-c2cccnc2)sc1-c1nnc(Cc2ccccc2)o1`, the selectivity ratio was determined as 10 in data set [1]; 9 in data set [3]; 10 in data set [6]; 10 in data set [8]; 9 in [9]; 10 in data set [10]. For the same molecule, the selectivity ratio in data set [12] and in data set [14] was 9 in each case. For the same molecule, the IC50 in [2] and in data set [11] was above 30 µg/mL throughout. The MIC in data set [2] and in data set [11] was above 30 µg/mL throughout. Also, the 50% cytotoxic concentration (CC50) in [4], in data set [5], in data set [7] and in data set [13] was above 100 µg/mL throughout.
`Cc1nc(-c2cccnc2)sc1-c1nnc(-c2ccccc2Cl)o1`: the selectivity ratio worked out at 21 in data set [1]; 19 in data set [3]; 21 in [6]; 21 in data set [8]; 19 in [9]; 21 in data set [10]. The selectivity ratio in data set [12] and in data set [14] was 19 each time. The IC50 in [2] and in [11] was above 30 µg/mL each time. Besides, the MIC in [2] and in data set [11] was above 30 µg/mL in each case. For the same molecule, the CC50 in data set [4], in [5], in data set [7] and in data set [13] was above 100 µg/mL each time.
For `Cc1nc(-c2cccnc2)sc1-c1nnc(-c2ccccc2)o1`, the selectivity ratio in data set [1], in data set [3], in data set [6], in [8], in [9] and in data set [10] was 3 each time. For the same molecule, the selectivity ratio in data set [12] and in data set [14] was 3 each time. The IC50 in data set [2] and in data set [11] was above 30 µg/mL each time. Besides, the MIC in data set [2] and in data set [11] was above 30 µg/mL in each case. Moreover, the CC50 in data set [4], in [5], in data set [7] and in data set [13] was above 100 µg/mL throughout.
With `COc1ccccc1-c1nnc(-c2sc(-c3cccnc3)nc2C)o1`, the selectivity ratio stood at 25 in [1]; 38 in data set [3]; 25 in data set [6]; 25 in [8]; 38 in data set [9]; 25 in data set [10]. Further, the selectivity ratio in data set [12] and in data set [14] was 38 in each case. In addition, the half-maximal inhibitory concentration (IC50) in data set [2] and in [11] was above 30 µg/mL throughout. In addition, the MIC in data set [2] and in [11] was above 30 µg/mL in each case. The CC50 in data set [4], in [5], in data set [7] and in data set [13] was above 100 µg/mL each time.
As for `Cc1nc(-c2cccnc2)sc1-c1nnc(-c2ccc(Cl)cc2)o1`, the selectivity ratio in [1], in [3], in data set [6], in [8], in data set [9] and in [10] was 3 throughout. Also, the selectivity ratio in [12] and in data set [14] was 3 each time. The IC50 in data set [2] and in data set [11] was above 30 µg/mL throughout. Further, the MIC in data set [2] and in data set [11] was above 30 µg/mL throughout. In addition, the CC50 in data set [4], in data set [5], in [7] and in data set [13] was above 100 µg/mL each time.
